ChEMBL document CHEMBL4052714, “Synthesis and antibacterial activity of novel 4″-O-(1-aralkyl-1,2,3-triazol-4-methyl-carbamoyl) azithromycin analogs” (2017)
In brackets after ≈: the same amount, converted by molar mass.

Key:
Type in all cases: functional
Escherichia coli = test: Antibacterial activity against Escherichia coli ATCC 25922
Staphylococcus aureus [1] = test: Antibacterial activity against methicillin-susceptible Staphylococcus aureus ATCC 29213
Streptococcus pneumoniae [2] = test: Antibacterial activity against erythromycin-resistant Streptococcus pneumoniae A22072 expressing mefA gene
Pseudomonas aeruginosa = test: Antibacterial activity against Pseudomonas aeruginosa ATCC 27853
Staphylococcus aureus [3] = test: Antibacterial activity against erythromycin-susceptible Staphylococcus aureus ATCC 25923
Streptococcus pneumoniae [4] = test: Antibacterial activity against erythromycin-resistant Streptococcus pneumoniae B1 expressing ermB gene
Streptococcus pyogenes [5] = test: Antibacterial activity against erythromycin-susceptible Streptococcus pyogenes isolate S2
Streptococcus pneumoniae [6] = test: Antibacterial activity against erythromycin-resistant Streptococcus pneumoniae AB11 expressing ermB/mefA gene
Streptococcus pyogenes [7] = test: Antibacterial activity against erythromycin-resistant Streptococcus pyogenes isolate R2
Streptococcus pneumoniae [8] = test: Antibacterial activity against erythromycin-susceptible Streptococcus pneumoniae ATCC 49619

Structure (SMILES) | MIC (Escherichia coli) | MIC (Staphylococcus aureus [1]) | MIC (Streptococcus pneumoniae [2]) | MIC (Pseudomonas aeruginosa) | MIC (Staphylococcus aureus [3]) | MIC (Streptococcus pneumoniae [4]) | MIC (Streptococcus pyogenes [5]) | MIC (Streptococcus pneumoniae [6]) | MIC (Streptococcus pyogenes [7]) | MIC (Streptococcus pneumoniae [8])
CC[C@H]1OC(=O)[C@H](C)[C@@H](O[C@H]2C[C@@](C)(OC)[C@@H](OC(=O)NCc3cn(Cc4c(Cl)cccc4Cl)nn3)[C@H](C)O2)[C@H](C)[C@@H](O[C@@H]2O[C@H](C)C[C@H](N(C)C)[C@H]2O)[C@](C)(O)C[C@@H](C)CN(C)[C@H](C)[C@@H](O)[C@]1(C)O | 32 µg/mL (≈ 31 µM) | 16 µg/mL (≈ 15.5 µM) | 0.5 µg/mL (≈ 0.484 µM) | 32 µg/mL (≈ 31 µM) | 1 µg/mL (≈ 0.969 µM) | 0.5 µg/mL (≈ 0.484 µM) | 0.03 µg/mL (≈ 0.0291 µM) | 0.5 µg/mL (≈ 0.484 µM) | 32 µg/mL (≈ 31 µM) | 0.5 µg/mL (≈ 0.484 µM)
CC[C@H]1OC(=O)[C@H](C)[C@@H](O[C@H]2C[C@@](C)(OC)[C@@H](OC(=O)NCc3cn(Cc4cccc(C)c4)nn3)[C@H](C)O2)[C@H](C)[C@@H](O[C@@H]2O[C@H](C)C[C@H](N(C)C)[C@H]2O)[C@](C)(O)C[C@@H](C)CN(C)[C@H](C)[C@H]2OC(=O)O[C@@]21C | 128 µg/mL (≈ 128 µM) | 32 µg/mL (≈ 31.9 µM) | 2 µg/mL (≈ 1.99 µM) | 64 µg/mL (≈ 63.8 µM) | 2 µg/mL (≈ 1.99 µM) | 4 µg/mL (≈ 3.99 µM) | 0.25 µg/mL (≈ 0.249 µM) | 2 µg/mL (≈ 1.99 µM) | 64 µg/mL (≈ 63.8 µM) | 1 µg/mL (≈ 0.997 µM)
CC[C@H]1OC(=O)[C@H](C)[C@@H](O[C@H]2C[C@@](C)(OC)[C@@H](OC(=O)NCc3cn(Cc4ccccc4)nn3)[C@H](C)O2)[C@H](C)[C@@H](O[C@@H]2O[C@H](C)C[C@H](N(C)C)[C@H]2O)[C@](C)(O)C[C@@H](C)CN(C)[C@H](C)[C@H]2OC(=O)O[C@@]21C | 128 µg/mL (≈ 129 µM) | 32 µg/mL (≈ 32.3 µM) | 8 µg/mL (≈ 8.09 µM) | 64 µg/mL (≈ 64.7 µM) | 4 µg/mL (≈ 4.04 µM) | 8 µg/mL (≈ 8.09 µM) | 0.06 µg/mL (≈ 0.0607 µM) | 4 µg/mL (≈ 4.04 µM) | 128 µg/mL (≈ 129 µM) | 0.5 µg/mL (≈ 0.505 µM)
CC[C@H]1OC(=O)[C@H](C)[C@@H](O[C@H]2C[C@@](C)(OC)[C@@H](OC(=O)NCc3cn(Cc4ccc(C)cc4)nn3)[C@H](C)O2)[C@H](C)[C@@H](O[C@@H]2O[C@H](C)C[C@H](N(C)C)[C@H]2O)[C@](C)(O)C[C@@H](C)CN(C)[C@H](C)[C@H]2OC(=O)O[C@@]21C | 128 µg/mL (≈ 128 µM) | 64 µg/mL (≈ 63.8 µM) | 1 µg/mL (≈ 0.997 µM) | 64 µg/mL (≈ 63.8 µM) | 4 µg/mL (≈ 3.99 µM) | 2 µg/mL (≈ 1.99 µM) | 0.25 µg/mL (≈ 0.249 µM) | 1 µg/mL (≈ 0.997 µM) | 64 µg/mL (≈ 63.8 µM) | 1 µg/mL (≈ 0.997 µM)
CC[C@H]1OC(=O)[C@H](C)[C@@H](O[C@H]2C[C@@](C)(OC)[C@@H](OC(=O)NCc3cn(Cc4ccc([N+](=O)[O-])cc4)nn3)[C@H](C)O2)[C@H](C)[C@@H](O[C@@H]2O[C@H](C)C[C@H](N(C)C)[C@H]2O)[C@](C)(O)C[C@@H](C)CN(C)[C@H](C)[C@@H](O)[C@]1(C)O | 32 µg/mL (≈ 31.7 µM) | 16 µg/mL (≈ 15.9 µM) | 2 µg/mL (≈ 1.98 µM) | 32 µg/mL (≈ 31.7 µM) | 1 µg/mL (≈ 0.992 µM) | 1 µg/mL (≈ 0.992 µM) | 0.03 µg/mL (≈ 0.0298 µM) | 1 µg/mL (≈ 0.992 µM) | 64 µg/mL (≈ 63.5 µM) | 1 µg/mL (≈ 0.992 µM)
CC[C@H]1OC(=O)[C@H](C)[C@@H](O[C@H]2C[C@@](C)(OC)[C@@H](OC(=O)NCc3cn(Cc4ccccc4C)nn3)[C@H](C)O2)[C@H](C)[C@@H](O[C@@H]2O[C@H](C)C[C@H](N(C)C)[C@H]2O)[C@](C)(O)C[C@@H](C)CN(C)[C@H](C)[C@@H](O)[C@]1(C)O | 16 µg/mL (≈ 16.4 µM) | 16 µg/mL (≈ 16.4 µM) | 0.5 µg/mL (≈ 0.512 µM) | 64 µg/mL (≈ 65.5 µM) | 1 µg/mL (≈ 1.02 µM) | 0.5 µg/mL (≈ 0.512 µM) | 0.03 µg/mL (≈ 0.0307 µM) | 0.5 µg/mL (≈ 0.512 µM) | 64 µg/mL (≈ 65.5 µM) | 0.25 µg/mL (≈ 0.256 µM)
CC[C@H]1OC(=O)[C@H](C)[C@@H](O[C@H]2C[C@@](C)(OC)[C@@H](OC(=O)NCc3cn(Cc4ccccc4Cl)nn3)[C@H](C)O2)[C@H](C)[C@@H](O[C@@H]2O[C@H](C)C[C@H](N(C)C)[C@H]2O)[C@](C)(O)C[C@@H](C)CN(C)[C@H](C)[C@@H](O)[C@]1(C)O | 128 µg/mL (≈ 128 µM) | 8 µg/mL (≈ 8.02 µM) | 0.25 µg/mL (≈ 0.251 µM) | 32 µg/mL (≈ 32.1 µM) | 1 µg/mL (≈ 1 µM) | 1 µg/mL (≈ 1 µM) | 0.03 µg/mL (≈ 0.0301 µM) | 0.5 µg/mL (≈ 0.501 µM) | 64 µg/mL (≈ 64.1 µM) | 0.25 µg/mL (≈ 0.251 µM)
CC[C@H]1OC(=O)[C@H](C)[C@@H](O[C@H]2C[C@@](C)(OC)[C@@H](OC(=O)NCc3cn(Cc4ccccc4C)nn3)[C@H](C)O2)[C@H](C)[C@@H](O[C@@H]2O[C@H](C)C[C@H](N(C)C)[C@H]2O)[C@](C)(O)C[C@@H](C)CN(C)[C@H](C)[C@H]2OC(=O)O[C@@]21C | 128 µg/mL (≈ 128 µM) | 32 µg/mL (≈ 31.9 µM) | 2 µg/mL (≈ 1.99 µM) | 64 µg/mL (≈ 63.8 µM) | 4 µg/mL (≈ 3.99 µM) | 4 µg/mL (≈ 3.99 µM) | 0.06 µg/mL (≈ 0.0598 µM) | 2 µg/mL (≈ 1.99 µM) | 64 µg/mL (≈ 63.8 µM) | 0.5 µg/mL (≈ 0.498 µM)
CC[C@H]1OC(=O)[C@H](C)[C@@H](O[C@H]2C[C@@](C)(OC)[C@@H](OC(=O)NCc3cn(Cc4ccccc4)nn3)[C@H](C)O2)[C@H](C)[C@@H](O[C@@H]2O[C@H](C)C[C@H](N(C)C)[C@H]2O)[C@](C)(O)C[C@@H](C)CN(C)[C@H](C)[C@@H](O)[C@]1(C)O | 32 µg/mL (≈ 33.2 µM) | 8 µg/mL (≈ 8.31 µM) | 1 µg/mL (≈ 1.04 µM) | 32 µg/mL (≈ 33.2 µM) | 1 µg/mL (≈ 1.04 µM) | 2 µg/mL (≈ 2.08 µM) | 0.06 µg/mL (≈ 0.0623 µM) | 4 µg/mL (≈ 4.15 µM) | 32 µg/mL (≈ 33.2 µM) | 0.5 µg/mL (≈ 0.519 µM)
CC[C@H]1OC(=O)[C@H](C)[C@@H](O[C@H]2C[C@@](C)(OC)[C@@H](OC(=O)NCc3cn(Cc4ccc([N+](=O)[O-])cc4)nn3)[C@H](C)O2)[C@H](C)[C@@H](O[C@@H]2O[C@H](C)C[C@H](N(C)C)[C@H]2O)[C@](C)(O)C[C@@H](C)CN(C)[C@H](C)[C@H]2OC(=O)O[C@@]21C | 64 µg/mL (≈ 61.9 µM) | 32 µg/mL (≈ 30.9 µM) | 4 µg/mL (≈ 3.87 µM) | 64 µg/mL (≈ 61.9 µM) | 4 µg/mL (≈ 3.87 µM) | 4 µg/mL (≈ 3.87 µM) | 0.008 µg/mL (≈ 0.00774 µM) | 0.5 µg/mL (≈ 0.483 µM) | 128 µg/mL (≈ 124 µM) | 1 µg/mL (≈ 0.967 µM)
CC[C@H]1OC(=O)[C@H](C)[C@@H](O[C@H]2C[C@@](C)(OC)[C@@H](OC(=O)NCc3cn(Cc4ccc(Cl)cc4)nn3)[C@H](C)O2)[C@H](C)[C@@H](O[C@@H]2O[C@H](C)C[C@H](N(C)C)[C@H]2O)[C@](C)(O)C[C@@H](C)CN(C)[C@H](C)[C@@H](O)[C@]1(C)O | 64 µg/mL (≈ 64.1 µM) | 16 µg/mL (≈ 16 µM) | 1 µg/mL (≈ 1 µM) | 32 µg/mL (≈ 32.1 µM) | 1 µg/mL (≈ 1 µM) | 2 µg/mL (≈ 2 µM) | 0.03 µg/mL (≈ 0.0301 µM) | 0.5 µg/mL (≈ 0.501 µM) | 64 µg/mL (≈ 64.1 µM) | 0.5 µg/mL (≈ 0.501 µM)
CC[C@H]1OC(=O)[C@H](C)[C@@H](O[C@H]2C[C@@](C)(OC)[C@@H](OC(=O)NCc3cn(Cc4ccc(Br)cc4)nn3)[C@H](C)O2)[C@H](C)[C@@H](O[C@@H]2O[C@H](C)C[C@H](N(C)C)[C@H]2O)[C@](C)(O)C[C@@H](C)CN(C)[C@H](C)[C@H]2OC(=O)O[C@@]21C | 128 µg/mL (≈ 120 µM) | 32 µg/mL (≈ 30 µM) | 1 µg/mL (≈ 0.936 µM) | 64 µg/mL (≈ 59.9 µM) | 2 µg/mL (≈ 1.87 µM) | 4 µg/mL (≈ 3.74 µM) | 0.06 µg/mL (≈ 0.0562 µM) | 1 µg/mL (≈ 0.936 µM) | 32 µg/mL (≈ 30 µM) | 1 µg/mL (≈ 0.936 µM)
CC[C@H]1OC(=O)[C@H](C)[C@@H](O[C@H]2C[C@@](C)(OC)[C@@H](OC(=O)NCc3cn(Cc4ccc(C)cc4)nn3)[C@H](C)O2)[C@H](C)[C@@H](O[C@@H]2O[C@H](C)C[C@H](N(C)C)[C@H]2O)[C@](C)(O)C[C@@H](C)CN(C)[C@H](C)[C@@H](O)[C@]1(C)O | 32 µg/mL (≈ 32.7 µM) | 16 µg/mL (≈ 16.4 µM) | 0.5 µg/mL (≈ 0.512 µM) | 64 µg/mL (≈ 65.5 µM) | 1 µg/mL (≈ 1.02 µM) | 0.5 µg/mL (≈ 0.512 µM) | 0.03 µg/mL (≈ 0.0307 µM) | 1 µg/mL (≈ 1.02 µM) | 64 µg/mL (≈ 65.5 µM) | 0.5 µg/mL (≈ 0.512 µM)
CC[C@H]1OC(=O)[C@H](C)[C@@H](O[C@H]2C[C@@](C)(OC)[C@@H](OC(=O)NCc3cn(Cc4cccc(Cl)c4)nn3)[C@H](C)O2)[C@H](C)[C@@H](O[C@@H]2O[C@H](C)C[C@H](N(C)C)[C@H]2O)[C@](C)(O)C[C@@H](C)CN(C)[C@H](C)[C@@H](O)[C@]1(C)O | 16 µg/mL (≈ 16 µM) | 8 µg/mL (≈ 8.02 µM) | 0.25 µg/mL (≈ 0.251 µM) | 32 µg/mL (≈ 32.1 µM) | 1 µg/mL (≈ 1 µM) | 0.5 µg/mL (≈ 0.501 µM) | 0.06 µg/mL (≈ 0.0601 µM) | 1 µg/mL (≈ 1 µM) | 64 µg/mL (≈ 64.1 µM) | 0.25 µg/mL (≈ 0.251 µM)
